Laboratory results reported in the CheMixHub ionic liquid set.

Assay: xn = mol fraction of the nth substance listed
Conditions: for electrical conductivity: 293.2 K

CCOP(=O)([O-])OCC.CC[N+]1(C)CCCC1 + CCO
viscosity [mPa·s], 100 kPa
Conditions | 293.15 K | 298.15 K | 303.15 K | 308.15 K | 313.15 K | 318.15 K | 323.15 K | 328.15 K | 333.15 K | 338.15 K
x1 = 0.1003 | 3.85 | 3.4 | 2.99 | 2.66 | 2.35 | 2.07 | 1.83 | 1.67 | 1.5 | 1.44
x1 = 0.2001 | 8.78 | 7.84 | 6.91 | 6.2 | 5.58 | 5.06 | 4.67 | 4.27 | 3.94 | 3.62
x1 = 0.3004 | 18.4 | 15.67 | 13.37 | 11.53 | 9.97 | 8.78 | 7.86 | 7.13 | 6.55 | 6.04
x1 = 0.4001 | 39.8 | 29.8 | 24.8 | 20.6 | 17.7 | 15.24 | 13.14 | 11.6 | 10.25 | 9.19
x1 = 0.4997 | 66.9 | 52.7 | 42.3 | 34.5 | 28.5 | 23.8 | 20.3 | 17.4 | 14.99 | 13.17
x1 = 0.6002 | 116.3 | 88.7 | 68.7 | 54.9 | 43.9 | 35.2 | 29.3 | 24.6 | 20.7 | 17.9
x1 = 0.7001 | 180 | 133.7 | 102.4 | 78.8 | 62.3 | 49.5 | 39.7 | 32.8 | 27 | 22.6
x1 = 0.8011 | 265 | 193 | 143.7 | 109.7 | 83 | 66.1 | 51.9 | 42.1 | 34.3 | 28.3
x1 = 0.8985 | 334 | 237 | 173 | 130.1 | 98.4 | 75.6 | 59.5 | 47.3 | 37.8 | 30.9
x1 = 1 | 441 | 307 | 220 | 164 | 121.4 | 92.7 | 73 | 56.2 | 44.4 | 36.3

CC[N+](CC)=C(N(C)C)N(C)C.O=S(=O)([N-]S(=O)(=O)C(F)(F)F)C(F)(F)F + CCO
viscosity [mPa·s], 101 kPa
Conditions | 293.15 K | 298.15 K | 303.15 K | 308.15 K | 313.15 K | 318.15 K | 323.15 K
x1 = 0.0004697 | 1.188 | 1.083 | 0.985 | 0.895 | 0.825 | 0.758 | 0.701
x1 = 0.0008976 | 1.203 | 1.096 | 0.996 | 0.905 | 0.834 | 0.766 | 0.708
x1 = 0.002294 | 1.228 | 1.119 | 1.016 | 0.922 | 0.849 | 0.78 | 0.72
x1 = 0.004714 | 1.266 | 1.146 | 1.04 | 0.945 | 0.871 | 0.8 | 0.738
x1 = 0.009053 | 1.318 | 1.197 | 1.088 | 0.987 | 0.909 | 0.835 | 0.772
x1 = 0.018 | 1.438 | 1.304 | 1.185 | 1.075 | 0.989 | 0.909 | 0.839
x1 = 0.02647 | 1.561 | 1.414 | 1.282 | 1.162 | 1.069 | 0.981 | 0.904
x1 = 0.03521 | 1.7 | 1.537 | 1.394 | 1.263 | 1.156 | 1.061 | 0.98
x1 = 0.04396 | 1.85 | 1.66 | 1.502 | 1.363 | 1.253 | 1.149 | 1.06
x1 = 0.05173 | 1.99 | 1.79 | 1.612 | 1.459 | 1.327 | 1.218 | 1.121
x1 = 0.06055 | 2.15 | 1.92 | 1.73 | 1.564 | 1.419 | 1.304 | 1.199
x1 = 0.07263 | 2.38 | 2.12 | 1.91 | 1.72 | 1.557 | 1.423 | 1.306
x1 = 0.08417 | 2.61 | 2.32 | 2.08 | 1.87 | 1.69 | 1.542 | 1.412
x1 = 0.1028 | 2.97 | 2.65 | 2.37 | 2.13 | 1.92 | 1.75 | 1.592
x1 = 0.1216 | 3.38 | 3.01 | 2.69 | 2.42 | 2.18 | 1.96 | 1.77

101 kPa
Conditions | electrical conductivity [S/m]
x1 = 0.0004697 | 0.0209
x1 = 0.0008976 | 0.0341
x1 = 0.002294 | 0.0657
x1 = 0.004714 | 0.109
x1 = 0.009053 | 0.167
x1 = 0.018 | 0.278
x1 = 0.02647 | 0.393
x1 = 0.03521 | 0.477
x1 = 0.04396 | 0.552
x1 = 0.05173 | 0.591
x1 = 0.06055 | 0.661
x1 = 0.07263 | 0.716
x1 = 0.08417 | 0.756
x1 = 0.1028 | 0.848
x1 = 0.1216 | 0.904

CCC(C)O (stereo not drawn) + CCOS(=O)(=O)[O-].CC[n+]1ccn(C)c1
Conditions | viscosity [mPa·s]
308.15 K, 101 kPa, x2 = 0 | 2

O=C([O-])c1ccccc1.[Na+] + CCOS(=O)(=O)[O-].CC[n+]1ccn(C)c1 + O
viscosity [mPa·s], 101.3 kPa
Conditions | 293.15 K | 298.15 K | 303.15 K | 308.15 K | 313.15 K
x1 = 0.0001784, x2 = 0 | 1.009 | 0.897 | 0.803 | 0.727 | 0.651
x1 = 0.0001804, x2 = 0.001795 | 1.079 | 0.966 | 0.851 | 0.757 | 0.685
x1 = 0.0001842, x2 = 0.002697 | 1.114 | 0.994 | 0.883 | 0.795 | 0.716
x1 = 0.0001899, x2 = 0.003589 | 1.144 | 1.024 | 0.907 | 0.819 | 0.735
x1 = 0.0005403, x2 = 0 | 1.014 | 0.903 | 0.809 | 0.733 | 0.657
x1 = 0.0005539, x2 = 0.001794 | 1.086 | 0.973 | 0.858 | 0.764 | 0.692
x1 = 0.0005579, x2 = 0.002696 | 1.121 | 1.001 | 0.89 | 0.802 | 0.723
x1 = 0.0005619, x2 = 0.003587 | 1.151 | 1.032 | 0.915 | 0.827 | 0.743
x1 = 0.0009002, x2 = 0 | 1.019 | 0.908 | 0.814 | 0.738 | 0.662
x1 = 0.0009234, x2 = 0.001794 | 1.092 | 0.979 | 0.864 | 0.77 | 0.698
x1 = 0.0009314, x2 = 0.002695 | 1.128 | 1.008 | 0.897 | 0.809 | 0.73
x1 = 0.0009412, x2 = 0.003586 | 1.158 | 1.039 | 0.922 | 0.834 | 0.75
x1 = 0.001258, x2 = 0 | 1.024 | 0.913 | 0.819 | 0.743 | 0.667
x1 = 0.001287, x2 = 0.001793 | 1.098 | 0.984 | 0.869 | 0.776 | 0.703
x1 = 0.001299, x2 = 0.002694 | 1.134 | 1.014 | 0.903 | 0.815 | 0.737
x1 = 0.001311, x2 = 0.003585 | 1.165 | 1.047 | 0.929 | 0.841 | 0.757
x1 = 0.001619, x2 = 0 | 1.029 | 0.918 | 0.824 | 0.748 | 0.672
x1 = 0.001651, x2 = 0.001792 | 1.103 | 0.99 | 0.875 | 0.781 | 0.709
x1 = 0.001674, x2 = 0.002693 | 1.14 | 1.02 | 0.91 | 0.821 | 0.742
x1 = 0.001689, x2 = 0.003583 | 1.172 | 1.053 | 0.936 | 0.848 | 0.764
x1 = 0.001978, x2 = 0 | 1.034 | 0.923 | 0.829 | 0.753 | 0.677
x1 = 0.002025, x2 = 0.001792 | 1.108 | 0.997 | 0.881 | 0.786 | 0.715
x1 = 0.002045, x2 = 0.002692 | 1.146 | 1.027 | 0.915 | 0.827 | 0.748
x1 = 0.002068, x2 = 0.003582 | 1.178 | 1.059 | 0.943 | 0.854 | 0.77

CCC(C)O (stereo not drawn) + CC[n+]1ccn(C)c1.N#C[N-]C#N
100 kPa, x2 = 0
Conditions | viscosity [mPa·s]
298.15 K | 3.01
303.15 K | 2.55
308.15 K | 2.21
313.15 K | 1.97
318.15 K | 1.79
323.15 K | 1.63

CCC(C)O (stereo not drawn) + CC[n+]1ccn(C)c1.O=S(=O)([O-])C(F)(F)F
Conditions | viscosity [mPa·s]
308.15 K, 101 kPa, x2 = 0 | 2
